The record followed here is patent US7196110B2, “N-substituted tricyclic 3-aminopyrazoles as inhibitors for the treatment of cell proliferative disorders” (Janssen Phamaceutica N.V., priority 2002, dated 2007).

This assay deals with T1, PDGF-receptor beta enzyme comprising the tyrosine kinase domain (Homo sapiens, UniProt P09619).
T1 construct: from amino acid 545 to 1106 of GenBank Access NO: AAA36427
Briefly: Inhibition of PDGF-receptor kinase activity (cell-free, PLC1 peptide, 33P Flashplate). To be noted: PDGF-R kinase activity; for inhibition at 10 µM: compound at 10 uM, read-out: Percent Inhibition @ 10 uM; for IC50: read-out: IC50. In kind it is biochemical. Put shortly:
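Recombinant kinase domain (aa 545–1106) phosphorylated a biotinylated PLC1 peptide with 5 μM ATP plus 33P-γ-ATP, in Tris pH 8, MgCl2, Na3VO4 and 1 mM DTT, for 60 min at 30 °C. Retained 33P was counted after washing. IC50 is the concentration halving activity versus no-inhibitor reactions.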

Usually inhibition stands for the percentage by which the read-out fell short of the control. As a reminder, the IC50 is the concentration that inhibits the measured activity by half.

T1 sequence (P09619 545-1106): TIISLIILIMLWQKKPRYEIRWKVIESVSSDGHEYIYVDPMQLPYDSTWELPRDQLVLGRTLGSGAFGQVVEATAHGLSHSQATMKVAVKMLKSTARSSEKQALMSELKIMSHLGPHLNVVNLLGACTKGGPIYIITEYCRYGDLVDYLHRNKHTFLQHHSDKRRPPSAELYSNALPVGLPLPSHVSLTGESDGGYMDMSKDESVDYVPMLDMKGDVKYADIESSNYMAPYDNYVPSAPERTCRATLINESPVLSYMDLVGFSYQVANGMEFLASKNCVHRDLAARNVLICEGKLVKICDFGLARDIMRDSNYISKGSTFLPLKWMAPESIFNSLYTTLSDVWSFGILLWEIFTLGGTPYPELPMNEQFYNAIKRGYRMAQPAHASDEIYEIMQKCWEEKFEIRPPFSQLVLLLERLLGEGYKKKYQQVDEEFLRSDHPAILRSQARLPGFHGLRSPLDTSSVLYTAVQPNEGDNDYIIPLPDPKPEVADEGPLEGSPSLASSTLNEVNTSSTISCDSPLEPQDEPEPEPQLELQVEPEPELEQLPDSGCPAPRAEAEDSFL

Take `Fc1cccc(F)c1CNc1[nH]nc2c1Cc1c(OCCCN3CCOCC3)cccc1-2` [Compound 414, (2,6-Difluoro-benzyl)-[5-(3-morpholin-4-yl-propoxy)-2,4-dihydro-indeno[1,2-c]pyrazol-3-yl]-amine]: the inhibition at 10 µM was determined as 80.5% and the IC50 turned out to be 564 nM.
For `Fc1ccccc1CNc1[nH]nc2c1Cc1c(OCCCN3CCOCC3)cccc1-2` [Compound 416, (2-Fluoro-benzyl)-[5-(3-morpholin-4-yl-propoxy)-2,4-dihydro-indeno[1,2-c]pyrazol-3-yl]-amine] the same measures were 72.5% and 1190 nM.
As to `COc1cc(Nc2[nH]nc3c2Cc2c(OC)cccc2-3)cc(C(F)(F)F)c1` [Compound 417, (5-Methoxy-2,4-dihydro-indeno[1,2-c]pyrazol-3-yl)-(3-methoxy-5-trifluoromethyl-phenyl)-amine], the inhibition at 10 µM was found to be 27.5% and the IC50 was 12200 nM.
Consider `COc1cccc2c1Cc1c-2n[nH]c1Nc1cccc(S(N)(=O)=O)c1` [Compound 418, 3-(5-Methoxy-2,4-dihydro-indeno[1,2-c]pyrazol-3-ylamino)-benzenesulfonamide], for which the inhibition at 10 µM came out at 82.5% and the IC50 came out at 892 nM.
For `CCC1c2cc(OC)c(OC)cc2-c2n[nH]c(Nc3cccc(F)c3)c21` (centres unmarked) [Compound 421, (4-Ethyl-6,7-dimethoxy-2,4-dihydro-indeno[1,2-c]pyrazol-3-yl)-(3-fluoro-phenyl)-amine] the same measures were 100% and 82.2 nM.
For `COc1cccc2c1Cc1c-2n[nH]c1NCc1c(F)cccc1F` [Compound 423, (2,6-Difluoro-benzyl)-(5-methoxy-2,4-dihydro-indeno[1,2-c]pyrazol-3-yl)-amine] the same measures were 90% and 181 nM.
For `COc1cc2c(cc1OC)-c1n[nH]c(NCc3cccc(Cl)c3)c1C2` [Compound 424, (3-Chloro-benzyl)-(6,7-dimethoxy-2,4-dihydro-indeno[1,2-c]pyrazol-3-yl)-amine] the same measures were 100% and 79.1 nM.
For `COc1cc2c(cc1F)Cc1c-2n[nH]c1NCc1ccccc1C` [Compound 425, (6-Fluoro-7-methoxy-2,4-dihydro-indeno[1,2-c]pyrazol-3-yl)-(2-methyl-benzyl)-amine], the inhibition at 10 µM was found to be 96% and the IC50 was determined as 2.3 nM.
For `COc1cc2c(cc1F)Cc1c-2n[nH]c1NCc1ccccc1F` [Compound 426, (2-Fluoro-benzyl)-(6-fluoro-7-methoxy-2,4-dihydro-indeno[1,2-c]pyrazol-3-yl)-amine] the same measures were 97% and 241 nM.
In the case of `COc1cc2c(cc1OC)-c1c(c(Nc3cccc(F)c3)nn1C(=O)c1ccccc1)C2` [Compound 427, [3-(3-Fluoro-phenylamino)-6,7-dimethoxy-4H-indeno[1,2-c]pyrazol-1-yl]-phenyl-methanone], the inhibition at 10 µM stood at 80% and the IC50 came out at 1150 nM.
For `COC(=O)CCC(=O)n1nc(Nc2cccc(F)c2)c2c1-c1cc(OC)c(OC)cc1C2` [Compound 428, 4-[3-(3-Fluoro-phenylamino)-6,7-dimethoxy-4H-indeno[1,2-c]pyrazol-1-yl]-4-oxo-butyric acid methyl ester] the same measures were 85.5% and 432 nM.
As to `CCOC(=O)CCC(=O)n1nc(Nc2cccc(F)c2)c2c1-c1cc(OC)c(OC)cc1C2` [Compound 429, 4-[3-(3-Fluoro-phenylamino)-6,7-dimethoxy-4H-indeno[1,2-c]pyrazol-1-yl]-4-oxo-butyric acid ethyl ester], the inhibition at 10 µM was found to be 72% and the IC50 amounted to 671 nM.
As for `CCC(=O)n1nc(Nc2cccc(F)c2)c2c1-c1cc(OC)c(OC)cc1C2` [Compound 430, 1-[3-(3-Fluoro-phenylamino)-6,7-dimethoxy-4H-indeno[1,2-c]pyrazol-1-yl]-propan-1-one], the inhibition at 10 µM worked out at 61.5% and the IC50 stood at 571 nM.
